Data as given in the NIST ThermoML archive (doi:10.1016/j.jct.2005.02.011).

Experiments:
[1] = xn = mol fraction of the nth substance listed; conditions: 298.15 K, 101.33 kPa, Liquid
[2] = excess molar enthalpy (molar enthalpy of mixing); xn = mol fraction of the nth substance listed; conditions: 298.15 K, 101.33 kPa, Liquid
[3] = 298.15 K; 101.33 kPa; Liquid

COCCOCCO [2-(2-methoxyethoxy)ethanol] + COC(F)(F)C(F)(F)C(F)(F)C(F)(F)F
Conditions | excess molar enthalpy, [2] [kcal/mol] | mass density, [1] [kg/m3]
x2 = 0 | – | 1015.6
x2 = 0.02479 | – | 1031.94
x2 = 0.04975 | – | 1048.37
x2 = 0.05006 | 0.0519 | –
x2 = 0.09963 | – | 1080.8
x2 = 0.1001 | 0.0713 | –
x2 = 0.1498 | – | 1112.38
x2 = 0.1999 | – | 1142.86
x2 = 0.2002 | 0.0873 | –
x2 = 0.2495 | – | 1172.17
x2 = 0.2996 | – | 1200.75
x2 = 0.3003 | 0.0967 | –
x2 = 0.3996 | – | 1254.72
x2 = 0.4003 | 0.102 | –
x2 = 0.4503 | 0.103 | –
x2 = 0.4994 | – | 1304.76
x2 = 0.5003 | 0.103 | –
x2 = 0.5503 | 0.103 | –
x2 = 0.5984 | – | 1351.61
x2 = 0.6003 | 0.103 | –
x2 = 0.6503 | 0.102 | –
x2 = 0.699 | – | 1396.09
x2 = 0.7003 | 0.101 | –
x2 = 0.7499 | – | 1417.68
x2 = 0.7998 | – | 1438.09
x2 = 0.8002 | 0.0953 | –
x2 = 0.85 | – | 1458.09
x2 = 0.8999 | – | 1477.55
x2 = 0.9001 | 0.0773 | –
x2 = 0.9501 | 0.055 | 1496.84
x2 = 0.9749 | – | 1506.46

COC(F)(F)C(F)(F)C(F)(F)C(F)(F)F [1-methoxy-nonafluorobutane] + CCOCCO
Conditions | excess molar enthalpy [kcal/mol] | mass density [kg/m3]
[1], x1 = 0.00503 | – | 929.7
[1], x1 = 0.01079 | – | 934.97
[1], x1 = 0.02102 | – | 944.32
[1], x1 = 0.02987 | – | 952.74
[1], x1 = 0.04002 | – | 961.9
[1], x1 = 0.04998 | – | 970.86
[1], x1 = 0.05985 | – | 979.66
[1], x1 = 0.07003 | – | 988.6
[1], x1 = 0.07976 | – | 997.21
[1], x1 = 0.09179 | – | 1007.4
[1], x1 = 0.09978 | – | 1014.34
[1], x1 = 0.1998 | – | 1094.44
[1], x1 = 0.2999 | – | 1166.16
[1], x1 = 0.3998 | – | 1230.34
[1], x1 = 0.4998 | – | 1288.32
[1], x1 = 0.5999 | – | 1340.92
[1], x1 = 0.6998 | – | 1389.17
[1], x1 = 0.7996 | – | 1433.24
[1], x1 = 0.9003 | – | 1475.39
[1], x1 = 0.9098 | – | 1479.22
[1], x1 = 0.9198 | – | 1482.97
[1], x1 = 0.9304 | – | 1487.24
[1], x1 = 0.9399 | – | 1491.41
[1], x1 = 0.9502 | – | 1495.54
[1], x1 = 0.9587 | – | 1499
[1], x1 = 0.969 | – | 1503.23
[1], x1 = 0.9802 | – | 1507.87
[1], x1 = 0.9901 | – | 1512.09
[1], x1 = 0.9949 | – | 1514.04
[1], x1 = 1 | – | 1516.5
[2], x1 = 0.05001 | 0.0376 | –
[2], x1 = 0.1 | 0.0615 | –
[2], x1 = 0.2 | 0.0937 | –
[2], x1 = 0.3 | 0.117 | –
[2], x1 = 0.4001 | 0.135 | –
[2], x1 = 0.5001 | 0.149 | –
[2], x1 = 0.5501 | 0.153 | –
[2], x1 = 0.6001 | 0.158 | –
[2], x1 = 0.6501 | 0.159 | –
[2], x1 = 0.7 | 0.159 | –
[2], x1 = 0.75 | 0.157 | –
[2], x1 = 0.8 | 0.151 | –
[2], x1 = 0.85 | 0.141 | –
[2], x1 = 0.9 | 0.121 | –
[2], x1 = 0.95 | 0.0866 | –
[2], x1 = 0.9507 | 0.0867 | –
[2], x1 = 0.975 | 0.056 | –

COC(F)(F)C(F)(F)C(F)(F)C(F)(F)F [1-methoxy-nonafluorobutane] + COCCOCCOC
Conditions | excess molar enthalpy [kcal/mol] | mass density [kg/m3]
[1], x1 = 0.02464 | – | 954.08
[1], x1 = 0.0497 | – | 969.75
[1], x1 = 0.1001 | – | 1001.04
[1], x1 = 0.1498 | – | 1031.72
[1], x1 = 0.1998 | – | 1062.36
[1], x1 = 0.2496 | – | 1092.61
[1], x1 = 0.2994 | – | 1122.54
[1], x1 = 0.3493 | – | 1152.22
[1], x1 = 0.3998 | – | 1181.93
[1], x1 = 0.4496 | – | 1210.92
[1], x1 = 0.4998 | – | 1239.78
[1], x1 = 0.5495 | – | 1268.27
[1], x1 = 0.5999 | – | 1296.83
[1], x1 = 0.6499 | – | 1324.79
[1], x1 = 0.6993 | – | 1352.36
[1], x1 = 0.7495 | – | 1380.12
[1], x1 = 0.7996 | – | 1407.65
[1], x1 = 0.8498 | – | 1435.09
[1], x1 = 0.8997 | – | 1462.11
[1], x1 = 0.9498 | – | 1489.22
[1], x1 = 0.9749 | – | 1502.87
[1], x1 = 1 | – | 1516.5
[2], x1 = 0.05001 | 0.0399 | –
[2], x1 = 0.1 | 0.066 | –
[2], x1 = 0.15 | 0.081 | –
[2], x1 = 0.2 | 0.0883 | –
[2], x1 = 0.25 | 0.0919 | –
[2], x1 = 0.3 | 0.0915 | –
[2], x1 = 0.35 | 0.0883 | –
[2], x1 = 0.4001 | 0.0839 | –
[2], x1 = 0.5001 | 0.0705 | –
[2], x1 = 0.6001 | 0.0546 | –
[2], x1 = 0.7 | 0.038 | –
[2], x1 = 0.8 | 0.022 | –
[2], x1 = 0.9 | 0.00844 | –
[2], x1 = 0.95 | 0.00265 | –

CCOCCO [2-ethoxyethan-1-ol]
Conditions | mass density [kg/m3]
[3] | 924.92
